According to article PMC3025325, “Identification of a κ-opioid agonist as a potent and selective lead for drug development against human African trypanosomiasis” (Biochemical Pharmacology, 2010):
Structures can show the parent of a compound that is named as a salt. Where two headings read alike, the source gives them in different places.

Columns and labels:
[1] = tested on: bloodstream forms of Trypanosoma brucei; assay: Resazurin cell viability assay, EC50 determinations against T. brucei; format: cell-based, T. b. brucei (strain 427)
MRC5 cells = assay: Resazurin cell viability counter-screen, EC50 determinations against mammalian cells; format: cell-based, human
[2] = Trypanosoma brucei, 72 h, read-out: EC50 of standard drugs against T. brucei
[3] = read-out: EC50 of standard drugs against T. brucei
[4] = Homo sapiens, MRC5, 72 h, read-out: EC50 vs. MRC5
[5] = Trypanosoma brucei, 72 h, read-out: EC50 vs. T. brucei
[6] = Homo sapiens, MRC5, 72 h, 3 days incubation, mean of 4 determinations weighted to standard error, read-out: EC50 vs. MRC5
[7] = Trypanosoma brucei, 72 h, LOPAC hits (library screening), 3 days incubation, mean of 3 determinations weighted to standard error, read-out: EC50 vs. T. brucei
[8] = Trypanosoma brucei, 72 h, LOPAC hits, 3 days incubation, mean of 3 determinations weighted to standard error, read-out: EC50 vs. T. brucei

| Compound | Selectivity (MRC5 cells) | EC50 (MRC5 cells; [4]) [nM] | EC50 [1, 5] [nM] | further results |
| --- | --- | --- | --- | --- |
| CC1CS(=O)(=O)CCN1/N=C/c1ccc([N+](=O)[O-])o1 (centres unmarked) [nifurtimox] |  |  |  | EC50 [1, 2]: 1800 nM; EC50 [1, 3]: 1810 ± 130 nM |
| CNc1ccc2oc(C[C@H]3O[C@@]4(CC[C@H]3C)O[C@H]([C@H](C)C(=O)c3ccc[nH]3)[C@H](C)C[C@H]4C)nc2c1C(=O)O [Calcimycin] | 4.2 | 750 ± 140 | 180 ± 13 |  |
| CCn1cnc2c(Nc3cccc(Cl)c3)nc(N[C@@H]3CCCC[C@@H]3N)nc21.Cl (relative stereo) [CGP-74514A, N^2-(cis-2-Aminocyclohexyl)-N^6-(3-chlorophenyl)-9-ethyl-9H-purine-2,6-diamine HCl] | 7.1 | 1500 ± 620 | 210 ± 8.3 |  |
| O=C1CC[C@@]2(O)[C@H]3Cc4ccc(O)c5c4[C@@]2(CCN3CC2CC2)[C@H]1O5 [Naltrexone] |  |  |  | EC50 ([1]; Trypanosoma brucei, read-out: EC50 of opioid receptor ligands against T. brucei): > 100000 nM |
| CCN(CC)CCCC(C)Nc1c2ccc(Cl)cc2nc2ccc(OC)cc12 (centres unmarked) [Quinacrine dihydrochloride] | 5.0 | 1900 ± 440 | 380 ± 13 |  |
| CCCn1c(=O)c2[nH]c(C3CCCC3)nc2n(CCC)c1=O [8-Cyclopentyl-1,3-dipropylxanthine] | 31 |  | 530 ± 53 |  |
| CC(=O)[C@]1(O)Cc2c(O)c3c(c(O)c2[C@@H](O[C@H]2C[C@H](N)[C@H](O)[C@H](C)O2)C1)C(=O)c1ccccc1C3=O [Idarubicin] | 3.9 | 78 ± 29 | 20 ± 1.5 |  |
| CC1=C(/C=C/C(C)=C/C=C/C(C)=C/C(=O)Nc2ccc(O)cc2)C(C)(C)CCC1 [Retinoic acid p-hydroxyanilide] |  |  |  | EC50 ([1]; read-out: EC50 vs. T. brucei): 2230 ± 270 nM |
| Dequalinium analogue, C-14 linker | 14 |  |  | EC50 ([1]; read-out: EC50 vs. T. brucei): 70 ± 4.6 nM |
| Oligomycin A | 120 |  |  | Selectivity / specificity for T. brucei over human fibroblasts (MRC5 cells): greater than 100 fold; EC50 ([1]; read-out: EC50 vs. T. brucei): 150 ± 3.1 nM |
| Nc1nc2ccc(Cl)cc2c2nc(-c3ccco3)nn12 [CGS-15943, 9-Chloro-2-(2-furyl)[1,2,4]triazolo[1,5-c]quinazolin-5-amine] |  |  | 1970 ± 210 |  |
| Cc1c2ccncc2c(C)c2c1[nH]c1ccccc12 [Ellipticine] | 3.7 |  |  | EC50 (MRC5 cells; [6]): 1700 ± 620 nM; EC50 [1, 7]: 460 ± 45 nM |
| C=C1C(=O)O[C@H]2[C@H]1CC/C(C)=C/CC[C@@]1(C)O[C@@H]21 [Parthenolide] |  |  |  | EC50 [1, 8]: 1060 ± 80 nM |
| [N-]=[N+]=Nc1ccc(C(=O)CSC[C@H](NC(=O)CC[C@H](N)C(=O)O)C(=O)NCC(=O)O)cc1 [S-(p-Azidophenacyl)glutathione] |  |  |  | EC50 ([1]; read-out: EC50 vs. T. brucei): > 10000 nM |
| CC[C@]1(O)C[C@H]2CN(CCc3c([nH]c4ccccc34)[C@@](C(=O)OC)(c3cc4c(cc3OC)N(C=O)[C@H]3[C@@](O)(C(=O)OC)[C@H](OC(C)=O)[C@]5(CC)C=CCN6CC[C@]43[C@@H]65)C2)C1 [Vincristine sulfate] | 0.02 | 0.6 ± 1 |  | EC50 [1, 7]: 30 ± 1 nM |
| CC(=O)O[C@H]1C(=O)[C@@]2(C)[C@H]([C@H](OC(=O)c3ccccc3)[C@]3(O)C[C@H](OC(=O)[C@H](O)[C@@H](NC(=O)c4ccccc4)c4ccccc4)C(C)=C1C3(C)C)[C@]1(OC(C)=O)CO[C@@H]1C[C@@H]2O [Taxol] | 2 | 6.6 ± 9.8 | 3.3 ± 0.071 |  |
| O=C1Nc2ccccc2/C1=C1/Nc2ccccc2/C1=N\O [Indirubin-3′-oxime] |  |  |  | EC50 ([1]; read-out: EC50 vs. T. brucei): 1280 ± 90 nM |
| NC(=O)c1cc(N2CC2)c([N+](=O)[O-])cc1[N+](=O)[O-] [CB 1954, 5-(1-Aziridinyl)-2,4-dinitrobenzamide] |  |  | 1080 ± 90 |  |
| O=C1c2c(O)ccc(O)c2C(=O)c2c(NCCNCCO)ccc(NCCNCCO)c21 [Mitoxantrone] | 46 | 110 ± 37 | 2.4 ± 0.2 |  |
| CCCN1CCc2cccc3c2[C@H]1Cc1ccc(O)c(O)c1-3 [R(−)-Propylnorapomorphine hydrochloride] |  |  |  | EC50 ([1]; read-out: EC50 vs. T. brucei): 1520 ± 210 nM |
| Cc1ccc(C(=O)Nc2ccc(S(=O)(=O)O)c3cc(S(=O)(=O)O)cc(S(=O)(=O)O)c23)cc1NC(=O)c1cccc(NC(=O)Nc2cccc(C(=O)Nc3cc(C(=O)Nc4ccc(S(=O)(=O)O)c5cc(S(=O)(=O)O)cc(S(=O)(=O)O)c45)ccc3C)c2)c1 [Suramin hexasodium] | >710 | > 50000 | < 70 | Selectivity / specificity for T. brucei over human fibroblasts (MRC5 cells): > 700 fold; EC50 [1, 2]: 20.1 ± 1.1 nM; EC50 ([1]; read-out: EC50 vs. T. brucei): 68 ± 3.5 nM |
| c1ccc2c(c1)[I+]c1ccccc1-2 [Diphenyleneiodonium chloride] | 5.7 | 700 ± 870 | 120 ± 7.6 |  |
| O=C1Cc2c([nH]c3ccc([N+](=O)[O-])cc23)-c2ccccc2N1 [Alsterpaullone] | 1.3 | 510 ± 170 | 400 ± 40 |  |
| CCCN(CCC)CCc1ccc(O)c(O)c1 [Dipropyldopamine hydrobromide] |  |  | 1290 ± 60 |  |
| C[n+]1cc2c3c(ccc2c2ccc4cc5c(cc4c21)OCO5)OCO3 [Sanguinarine chloride] | 5.8 | 1400 ± 350 | 240 ± 17 |  |

| Compound | Selectivity (MRC5 cells) | EC50 (MRC5 cells; [4]) [nM] | EC50 [1, 5] [nM] | further results |
| --- | --- | --- | --- | --- |
| O=C1Cc2c([nH]c3ccc(Br)cc23)-c2ccccc2N1 [Kenpaullone] |  |  | 1860 ± 270 |  |
| CC[C@H]1CN2CCc3cc(OC)c(OC)cc3[C@@H]2C[C@@H]1C[C@H]1NCCc2cc(OC)c(OC)cc21 [Emetine dihydrochloride hydrate] |  |  |  | EC50 (MRC5 cells; [6]): 30 ± 3.1 nM; EC50 [1, 7]: 7.9 ± 0.53 nM |
| COc1ccc2c(c[n+](C)c3c4cc5c(cc4ccc23)OCO5)c1OC [Chelerythrine chloride] | 42 |  |  | EC50 (MRC5 cells; [6]): 2500 ± 480 nM; EC50 [1, 7]: 59 ± 5.7 nM |
| Nc1ncnc2c1nc(Sc1ccc(Cl)cc1)n2[C@H]1OC2COP(=O)(O)O[C@H]2[C@@H]1O (some centres unmarked) [8-(4-Chlorophenylthio)-cAMP sodium] |  |  |  | EC50 ([1]; read-out: EC50 vs. T. brucei): 400 ± 54 nM |
| CC1(C)CCC2=C(O1)c1ccccc1C(=O)C2=O [Beta-Lapachone] | 10 | 8600 ± 2900 | 850 ± 130 |  |
| NC[C@@H]1O[C@H](C23CC4CC(CC(C4)C2)C3)Cc2c1ccc(O)c2O (single isomer, unassigned; (-)) [A-77636 hydrochloride] |  |  |  | EC50 ([1]; read-out: EC50 vs. T. brucei): 2210 ± 150 nM |
| Cc1cc(N)c2ccccc2[n+]1CCCCCCCCCC[n+]1c(C)cc(N)c2ccccc21 [Dequalinium dichloride] | 140 | 6100 ± 1500 | 43 ± 8.8 | Selectivity / specificity for T. brucei over human fibroblasts (MRC5 cells): greater than 100 fold |
| COc1cccc2c1C(=O)c1c(O)c3c(c(O)c1C2=O)C[C@@](O)(C(=O)CO)C[C@@H]3O[C@H]1C[C@H](N)[C@H](O)[C@H](C)O1 [Doxorubicin] |  |  |  | EC50 (MRC5 cells; Homo sapiens, MRC5, 72 h, read-out: EC50 against MRC5 (control drug)): 85.9 ± 38.2 nM |
| Nc1nc(N)nc(Nc2ccc([As]3SCC(CO)S3)cc2)n1 (centres unmarked) [melarsoprol] |  |  |  | EC50 [1, 2]: 7.52 ± 0.28 nM; EC50 [1, 3]: 8 nM |
| CC(C)[C@@]1(NC(=O)[C@@H]2C[C@@H]3c4cccc5[nH]cc(c45)C[C@H]3N(C)C2)O[C@@]2(O)[C@@H]3CCCN3C(=O)[C@H](Cc3ccccc3)N2C1=O.CS(=O)(=O)O [Dihydroergocristine methanesulfonate] | 23 |  |  | EC50 ([1]; read-out: EC50 vs. T. brucei): 890 ± 57 nM |
| N=C(N)SCCc1cccc(CCSC(=N)N)c1 [1,3-PBIT dihydrobromide, Phenylene-1,3-bis(ethane-2-isothiourea) dihydrobromide] |  |  |  | EC50 ([1]; read-out: EC50 vs. T. brucei): 1580 ± 80 nM |
| CCCCCCCCCCCCC/C=C/[C@@H](O)[C@@H](N)CO [Sphingosine] | 5.7 | 4600 ± 2500 | 820 ± 78 |  |
| O=C(O)c1cc[c]([Hg][Cl])cc1 [4-Chloromercuribenzoic acid] | 27 |  |  | EC50 ([1]; read-out: EC50 vs. T. brucei): 690 ± 85 nM |
| Buprenorphine |  |  |  | Activity against T. brucei (in words) [1]: weak activity |
| O=C(/C=C/c1ccc(O)c(O)c1)OCCc1ccccc1 [Caffeic acid phenethyl ester] |  |  | 1640 ± 130 |  |
| C=CCc1ccccc1OCC(O)CNC1(C)CCC(C(C)(C)NC(=O)CBr)CC1 (centres unmarked) [Bromoacetyl alprenolol menthane] |  |  | 1260 ± 140 |  |
| Br.CN1Cc2sccc2C(c2ccc(O)c(O)c2)C1 (centres unmarked) [SKF 89145 hydrobromide, 4-(3,4-Dihydroxyphenyl)-6-methyl-4,5,6,7-tetrahydrothieno[2,3-c]pyridine HBr] | 4.7 | 2900 ± 200 | 610 ± 44 |  |
| O=[N+]([O-])c1ccc(CSc2ncnc3c2ncn3[C@@H]2O[C@H](CO)[C@@H](O)[C@H]2O)cc1 [S-(4-Nitrobenzyl)-6-thioinosine] |  |  | 3780 ± 550 |  |
| Nc1ncnc2c1nc(Sc1ccc(Cl)cc1)n2C1OC2COP(=O)(O)O[C@H]2C1O (stereo in doubt) [8-(4-Chlorophenylthio)-cAMP sodium] | 44 |  |  |  |
| CC[C@H](C)C(=O)O[C@H]1CCC=C2C=C[C@H](C)[C@H](CC[C@@H]3C[C@@H](O)CC(=O)O3)[C@H]21 [Mevastatin] | 2.2 | 2000 ± 360 |  | EC50 [1, 7]: 940 ± 50 nM |
| CC[C@]1(O)C[C@@H]2CN(CCc3c([nH]c4ccccc34)[C@@](C(=O)OC)(c3cc4c(cc3OC)N(C)[C@H]3[C@@](O)(C(=O)OC)[C@H](OC(C)=O)[C@]5(CC)C=CCN6CC[C@]43[C@@H]65)C2)C1.O=S(=O)(O)O [Vinblastine sulfate salt] | 8.3 |  |  | EC50 (MRC5 cells; read-out: EC50 vs. MRC5): 780 ± 910 nM; EC50 ([1]; read-out: EC50 vs. T. brucei): 94 ± 6 nM |
| Cc1nc(-c2ccc(-c3ccc(C(=O)N4CCc5cc6c(cc54)C4(CCN(C)CC4)CO6)cc3)c(C)c2)no1 [SB 224289 hydrochloride, 1′-Methyl-5-([2′-methyl-4′-(5-methyl-1,2,4-oxadiazol-3-yl)biphenyl-4-yl]carbonyl)-2,3,6,7-tetrahydro-spiro(furo[2,3-f]indole-3,4′-piperidine)] |  |  |  | EC50 [1, 8]: 1350 ± 280 nM |
| CN(N=O)c1cc(O)ccc1O [Dephostatin] |  |  | > 10000 |  |
| Nc1ccn([C@H]2CC[C@@H](CO)O2)c(=O)n1 [2′,3′-Dideoxycytidine] |  |  | > 10000 |  |
| COc1cc2c(CCNC(C)=O)c[nH]c2cc1O [6-Hydroxymelatonin] |  |  |  | EC50 ([1]; read-out: EC50 vs. T. brucei): 3310 ± 230 nM |
